From the kinase profiling compilation of Christmann-Franck et al. (2016)
Blank lines part the entries; values can stand above or below the molecule they belong to.

What was measured:
Test in all cases: radiometric filter-binding kinase assay, Kinase HotSpot
Conditions in all cases: compound 0.5 µM; ATP 10 µM
ABL1 (human) = ABL1 (human) (UniProt P00519)
CAMK4 (human) = CAMK4 (human) (UniProt Q16566)
MAP3K11 (human) = MAP3K11 (human) (UniProt Q16584)
PRKG2 (human) = PRKG2 (human) (UniProt Q13237)
MAP3K3 (human) = MAP3K3 (human) (UniProt Q99759)
SRPK3 (human) = SRPK3 (human) (UniProt Q9UPE1)
STK10 (human) = STK10 (human) (UniProt O94804)
CLK2 (human) = CLK2 (human) (UniProt P49760)
CDK6 CCND1 (human) = CDK6 CCND1 (human) (UniProt Q00534+P24385)
TYRO3 (human) = TYRO3 (human) (UniProt Q06418)
PDGFRA (human) = PDGFRA (human) (UniProt P16234)
TGFBR1 (human) = TGFBR1 (human) (UniProt P36897)
FLT3 (human) = FLT3 (human) (UniProt P36888)
MAPK9 (human) = MAPK9 (human) (UniProt P45984)
PRKD1 (human) = PRKD1 (human) (UniProt Q15139)
CAMK1G (human) = CAMK1G (human) (UniProt Q96NX5)
CDK4 CCND3 (human) = CDK4 CCND3 (human) (UniProt P30281+P11802)
EPHA5 (human) = EPHA5 (human) (UniProt P54756)
CHEK2 (human) = CHEK2 (human) (UniProt O96017)
CDK9 CCNT1 (human) = CDK9 CCNT1 (human) (UniProt P50750+O60563)
MAPKAPK2 (human) = MAPKAPK2 (human) (UniProt P49137)
YES1 (human) = YES1 (human) (UniProt P07947)
TBK1 (human) = TBK1 (human) (UniProt Q9UHD2)
CLK3 (human) = CLK3 (human) (UniProt P49761)
CHUK (human) = CHUK (human) (UniProt O15111)
CSNK1G3 (human) = CSNK1G3 (human) (UniProt Q9Y6M4)
DSTYK (human) = DSTYK (human) (UniProt Q6XUX3)
PRKX (human) = PRKX (human) (UniProt P51817)
CDC42BPB (human) = CDC42BPB (human) (UniProt Q9Y5S2)
AXL (human) = AXL (human) (UniProt P30530)
PRKCD (human) = PRKCD (human) (UniProt Q05655)
EPHA7 (human) = EPHA7 (human) (UniProt Q15375)
HIPK4 (human) = HIPK4 (human) (UniProt Q8NE63)
INSRR (human) = INSRR (human) (UniProt P14616)
MAP2K2 (human) = MAP2K2 (human) (UniProt P36507)
AURKC (human) = AURKC (human) (UniProt Q9UQB9)
STK11 (human) = STK11 (human) (UniProt Q15831)
[1] = system: PRKCQ (human), Q04759 [P330L]
JAK3 JH1 JH2 (human) = JAK3 JH1 JH2 (human) (UniProt P52333)
CSNK1D (human) = CSNK1D (human) (UniProt P48730)
LTK (human) = LTK (human) (UniProt P29376)

Chain of CDK6 CCND1 (human) (P24385 whole entry, looked up): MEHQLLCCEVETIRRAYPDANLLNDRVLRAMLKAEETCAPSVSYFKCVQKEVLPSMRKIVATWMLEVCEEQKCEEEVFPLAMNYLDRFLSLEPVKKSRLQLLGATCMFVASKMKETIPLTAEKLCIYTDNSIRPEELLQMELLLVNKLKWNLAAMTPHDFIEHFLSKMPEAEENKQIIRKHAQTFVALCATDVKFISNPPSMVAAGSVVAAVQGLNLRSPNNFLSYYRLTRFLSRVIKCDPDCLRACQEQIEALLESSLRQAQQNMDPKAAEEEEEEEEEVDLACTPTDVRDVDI
Chain of CDK6 CCND1 (human) (Q00534 whole entry, looked up): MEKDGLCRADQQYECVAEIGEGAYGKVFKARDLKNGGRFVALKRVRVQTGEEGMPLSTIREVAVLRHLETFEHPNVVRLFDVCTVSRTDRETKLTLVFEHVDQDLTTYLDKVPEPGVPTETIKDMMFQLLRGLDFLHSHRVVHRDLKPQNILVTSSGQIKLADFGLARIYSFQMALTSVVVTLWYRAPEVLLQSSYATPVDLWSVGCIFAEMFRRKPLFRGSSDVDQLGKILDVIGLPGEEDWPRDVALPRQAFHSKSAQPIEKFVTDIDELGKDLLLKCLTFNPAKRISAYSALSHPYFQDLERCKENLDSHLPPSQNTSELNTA
Chain of SRPK3 (human) (Q9UPE1 whole entry, looked up): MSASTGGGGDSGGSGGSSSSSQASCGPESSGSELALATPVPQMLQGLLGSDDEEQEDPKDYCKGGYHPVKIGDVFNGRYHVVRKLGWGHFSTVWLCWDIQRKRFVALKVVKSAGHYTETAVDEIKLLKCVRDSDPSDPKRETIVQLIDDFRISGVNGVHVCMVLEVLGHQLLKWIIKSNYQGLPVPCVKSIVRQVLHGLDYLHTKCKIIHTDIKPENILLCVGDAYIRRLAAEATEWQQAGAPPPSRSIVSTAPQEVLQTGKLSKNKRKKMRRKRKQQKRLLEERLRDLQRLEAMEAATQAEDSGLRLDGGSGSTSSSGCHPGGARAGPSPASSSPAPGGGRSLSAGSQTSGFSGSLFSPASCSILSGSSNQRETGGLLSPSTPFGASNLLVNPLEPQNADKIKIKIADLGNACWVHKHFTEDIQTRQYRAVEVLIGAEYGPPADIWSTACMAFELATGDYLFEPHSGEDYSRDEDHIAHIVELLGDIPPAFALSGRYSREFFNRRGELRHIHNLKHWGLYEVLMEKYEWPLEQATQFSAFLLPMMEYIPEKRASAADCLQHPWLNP
Chain of PRKCD (human) (Q05655 whole entry, looked up): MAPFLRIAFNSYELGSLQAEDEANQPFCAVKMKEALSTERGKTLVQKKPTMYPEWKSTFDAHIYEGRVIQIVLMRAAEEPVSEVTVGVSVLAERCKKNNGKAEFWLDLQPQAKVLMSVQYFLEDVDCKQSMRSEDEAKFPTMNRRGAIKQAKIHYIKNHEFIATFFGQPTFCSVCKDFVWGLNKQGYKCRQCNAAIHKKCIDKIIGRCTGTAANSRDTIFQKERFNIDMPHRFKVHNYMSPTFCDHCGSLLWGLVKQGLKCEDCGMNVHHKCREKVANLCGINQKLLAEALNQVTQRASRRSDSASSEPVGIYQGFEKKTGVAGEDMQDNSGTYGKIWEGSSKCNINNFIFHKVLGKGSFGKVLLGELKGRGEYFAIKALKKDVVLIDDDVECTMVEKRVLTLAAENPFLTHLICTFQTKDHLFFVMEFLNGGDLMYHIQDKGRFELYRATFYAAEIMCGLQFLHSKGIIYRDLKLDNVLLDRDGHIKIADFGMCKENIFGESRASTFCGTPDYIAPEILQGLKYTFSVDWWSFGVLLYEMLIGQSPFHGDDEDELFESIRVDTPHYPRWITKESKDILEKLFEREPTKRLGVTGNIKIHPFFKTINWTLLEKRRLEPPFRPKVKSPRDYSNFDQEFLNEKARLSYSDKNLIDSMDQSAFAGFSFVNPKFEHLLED
Chain of ABL1 (human) (P00519 whole entry, looked up): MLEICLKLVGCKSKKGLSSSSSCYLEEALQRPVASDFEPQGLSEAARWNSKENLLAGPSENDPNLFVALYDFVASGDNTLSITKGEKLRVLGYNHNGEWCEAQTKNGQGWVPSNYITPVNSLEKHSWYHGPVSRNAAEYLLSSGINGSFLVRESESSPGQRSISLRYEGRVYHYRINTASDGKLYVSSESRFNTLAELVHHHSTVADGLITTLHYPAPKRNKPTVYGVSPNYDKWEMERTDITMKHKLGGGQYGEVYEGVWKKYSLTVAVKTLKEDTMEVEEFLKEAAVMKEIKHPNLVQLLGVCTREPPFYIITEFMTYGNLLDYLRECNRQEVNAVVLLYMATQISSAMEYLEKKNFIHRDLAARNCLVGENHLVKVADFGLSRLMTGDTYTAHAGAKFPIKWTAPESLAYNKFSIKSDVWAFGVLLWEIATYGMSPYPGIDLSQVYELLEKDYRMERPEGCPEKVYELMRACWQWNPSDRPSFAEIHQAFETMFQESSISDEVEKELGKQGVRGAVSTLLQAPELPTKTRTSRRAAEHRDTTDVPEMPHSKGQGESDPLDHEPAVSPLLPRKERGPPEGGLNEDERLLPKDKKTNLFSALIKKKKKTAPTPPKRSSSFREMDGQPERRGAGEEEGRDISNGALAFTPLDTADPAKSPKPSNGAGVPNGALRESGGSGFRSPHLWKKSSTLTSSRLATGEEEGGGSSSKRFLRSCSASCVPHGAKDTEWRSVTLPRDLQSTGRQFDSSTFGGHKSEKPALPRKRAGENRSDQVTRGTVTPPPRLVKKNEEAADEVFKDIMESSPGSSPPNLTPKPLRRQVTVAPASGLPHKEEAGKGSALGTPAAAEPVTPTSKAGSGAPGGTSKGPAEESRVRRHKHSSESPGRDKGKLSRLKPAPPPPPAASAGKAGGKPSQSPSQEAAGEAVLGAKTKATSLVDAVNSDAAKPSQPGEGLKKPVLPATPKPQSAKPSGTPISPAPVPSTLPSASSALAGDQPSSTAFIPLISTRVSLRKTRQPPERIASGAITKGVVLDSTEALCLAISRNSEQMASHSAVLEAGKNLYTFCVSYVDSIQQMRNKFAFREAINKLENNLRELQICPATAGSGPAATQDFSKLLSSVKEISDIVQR
Chain of CAMK4 (human) (Q16566 whole entry, looked up): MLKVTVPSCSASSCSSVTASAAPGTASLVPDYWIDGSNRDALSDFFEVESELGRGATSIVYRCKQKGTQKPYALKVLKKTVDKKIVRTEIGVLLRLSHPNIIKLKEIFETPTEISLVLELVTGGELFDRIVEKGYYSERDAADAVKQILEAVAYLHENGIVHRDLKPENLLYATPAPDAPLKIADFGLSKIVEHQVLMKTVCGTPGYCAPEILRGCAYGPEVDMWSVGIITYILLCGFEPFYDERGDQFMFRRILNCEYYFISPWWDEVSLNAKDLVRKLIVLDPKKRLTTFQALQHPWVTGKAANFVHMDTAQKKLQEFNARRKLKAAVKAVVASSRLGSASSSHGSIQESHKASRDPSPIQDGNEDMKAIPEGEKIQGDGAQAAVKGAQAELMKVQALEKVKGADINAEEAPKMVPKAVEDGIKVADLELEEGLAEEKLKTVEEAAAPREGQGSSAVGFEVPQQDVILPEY
Chain of TGFBR1 (human) (P36897 whole entry, looked up): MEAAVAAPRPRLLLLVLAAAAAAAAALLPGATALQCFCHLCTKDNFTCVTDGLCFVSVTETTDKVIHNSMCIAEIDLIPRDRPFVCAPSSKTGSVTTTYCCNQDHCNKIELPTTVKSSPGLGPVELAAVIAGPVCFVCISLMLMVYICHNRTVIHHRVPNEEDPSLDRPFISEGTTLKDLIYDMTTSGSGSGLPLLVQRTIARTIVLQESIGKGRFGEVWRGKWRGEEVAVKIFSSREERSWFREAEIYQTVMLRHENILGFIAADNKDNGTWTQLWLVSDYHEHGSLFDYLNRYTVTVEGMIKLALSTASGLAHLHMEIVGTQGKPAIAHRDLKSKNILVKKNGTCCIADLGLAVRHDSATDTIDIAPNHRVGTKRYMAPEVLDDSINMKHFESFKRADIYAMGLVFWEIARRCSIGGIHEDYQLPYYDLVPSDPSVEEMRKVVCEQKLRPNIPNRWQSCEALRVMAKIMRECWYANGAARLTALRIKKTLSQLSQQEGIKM
Chain of AURKC (human) (Q9UQB9 whole entry, looked up): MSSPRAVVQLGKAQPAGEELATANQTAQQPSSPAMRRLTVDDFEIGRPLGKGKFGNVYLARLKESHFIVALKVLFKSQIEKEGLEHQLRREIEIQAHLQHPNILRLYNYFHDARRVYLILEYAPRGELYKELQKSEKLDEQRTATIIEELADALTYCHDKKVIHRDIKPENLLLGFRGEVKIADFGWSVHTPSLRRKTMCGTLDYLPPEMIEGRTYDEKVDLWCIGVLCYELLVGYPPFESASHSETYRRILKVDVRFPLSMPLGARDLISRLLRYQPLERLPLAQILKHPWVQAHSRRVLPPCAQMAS
Chain of CHEK2 (human) (O96017 whole entry, looked up): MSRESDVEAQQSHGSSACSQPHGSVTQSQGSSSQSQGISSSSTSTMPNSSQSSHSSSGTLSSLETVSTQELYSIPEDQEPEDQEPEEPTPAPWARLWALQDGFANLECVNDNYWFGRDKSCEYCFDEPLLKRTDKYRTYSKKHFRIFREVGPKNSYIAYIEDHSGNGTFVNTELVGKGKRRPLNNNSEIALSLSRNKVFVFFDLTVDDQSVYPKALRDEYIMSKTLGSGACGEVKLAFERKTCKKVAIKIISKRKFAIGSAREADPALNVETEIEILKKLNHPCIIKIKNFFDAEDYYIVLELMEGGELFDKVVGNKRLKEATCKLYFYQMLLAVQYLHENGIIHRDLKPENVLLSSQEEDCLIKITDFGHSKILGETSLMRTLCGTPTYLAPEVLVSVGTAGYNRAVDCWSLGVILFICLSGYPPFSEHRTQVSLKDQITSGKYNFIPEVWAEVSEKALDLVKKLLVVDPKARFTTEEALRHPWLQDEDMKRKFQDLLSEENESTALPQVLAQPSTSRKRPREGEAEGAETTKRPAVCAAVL

Compound: C[C@@H]1CCN(C(=O)CC#N)C[C@@H]1N(C)c1ncnc2[nH]ccc12
residual activity (ABL1 (human)): 101%
residual activity (CAMK4 (human)): 96.3%
residual activity (MAP3K11 (human)): 104%
residual activity (PRKG2 (human)): 106%
residual activity (MAP3K3 (human)): 115%
residual activity (SRPK3 (human)): 103%
residual activity (STK10 (human)): 92.9%
residual activity (CLK2 (human)): 85.8%
residual activity (CDK6 CCND1 (human)): 96.5%
residual activity (TYRO3 (human)): 103%
residual activity (PDGFRA (human)): 104%
residual activity (TGFBR1 (human)): 98.8%
residual activity (FLT3 (human)): 77.9%
residual activity (MAPK9 (human)): 112%
residual activity (PRKD1 (human)): 97.3%
residual activity (CAMK1G (human)): 97.8%
residual activity (CDK4 CCND3 (human)): 99.9%
residual activity (EPHA5 (human)): 99.9%
residual activity (CHEK2 (human)): 104%
residual activity (CDK9 CCNT1 (human)): 100%
residual activity (MAPKAPK2 (human)): 96.6%
residual activity (YES1 (human)): 87.1%
residual activity (TBK1 (human)): 92.5%
residual activity (CLK3 (human)): 106%
residual activity (CHUK (human)): 95%
residual activity (CSNK1G3 (human)): 101%
residual activity (DSTYK (human)): 98.4%
residual activity (PRKX (human)): 110%
residual activity (CDC42BPB (human)): 95.4%
residual activity (AXL (human)): 97.7%
residual activity (PRKCD (human)): 75.3%
residual activity (EPHA7 (human)): 89%
residual activity (HIPK4 (human)): 96.2%
residual activity (INSRR (human)): 97.5%
residual activity (MAP2K2 (human)): 117%
residual activity (AURKC (human)): 85.3%
residual activity (STK11 (human)): 104%
residual activity [1]: 89%

residual activity (ABL1 (human)): 82.7%
residual activity (CAMK4 (human)): 103%
residual activity (MAP3K11 (human)): 1.38%
residual activity (MAP3K3 (human)): 31%
residual activity (SRPK3 (human)): 93.3%
residual activity (STK10 (human)): 19.3%
residual activity (CLK2 (human)): 36%
residual activity (CDK6 CCND1 (human)): 96.5%
residual activity (JAK3 JH1 JH2 (human)): 0.781%
residual activity (TYRO3 (human)): 98.8%
residual activity (PDGFRA (human)): 30%
residual activity (TGFBR1 (human)): 98.7%
residual activity (CSNK1D (human)): 101%
residual activity (MAPK9 (human)): 82.7%
residual activity (CHEK2 (human)): 85.1%
residual activity (CDK9 CCNT1 (human)): 64.2%
residual activity (MAPKAPK2 (human)): 97.8%
residual activity (LTK (human)): 50.1%
residual activity (YES1 (human)): 20.6%
residual activity (TBK1 (human)): 3.22%
residual activity (CLK3 (human)): 89.6%
residual activity (CSNK1G3 (human)): 95.3%
residual activity (PRKX (human)): 55.4%
residual activity (CDC42BPB (human)): 95.9%
residual activity (AXL (human)): 106%
residual activity (PRKCD (human)): 10.9%
residual activity (EPHA7 (human)): 87.2%
residual activity (HIPK4 (human)): 90.5%
residual activity (INSRR (human)): 96.2%
residual activity (AURKC (human)): 12%
Compound: CO[C@@H]1[C@H](N(C)C(=O)c2ccccc2)C[C@H]2O[C@]1(C)n1c3ccccc3c3c4c(c5c6ccccc6n2c5c31)C(=O)NC4

Compound: Cn1c2ccccc2c2c3c(c4c5ccccc5n(CCC#N)c4c21)CNC3=O
residual activity (ABL1 (human)): 84.6%
residual activity (CAMK4 (human)): 88.1%
residual activity (MAP3K11 (human)): 2.19%
residual activity (PRKG2 (human)): 28.2%
residual activity (MAP3K3 (human)): 5.86%
residual activity (SRPK3 (human)): 92.8%
residual activity (STK10 (human)): 20.1%
residual activity (CLK2 (human)): 88.7%
residual activity (CDK6 CCND1 (human)): 39.4%
residual activity (JAK3 JH1 JH2 (human)): 2.44%
residual activity (TYRO3 (human)): 85.6%
residual activity (PDGFRA (human)): 83.5%
residual activity (TGFBR1 (human)): 104%
residual activity (FLT3 (human)): 5.27%
residual activity (CSNK1D (human)): 97.5%
residual activity (MAPK9 (human)): 86%
residual activity (PRKD1 (human)): 17.3%
residual activity (CAMK1G (human)): 101%
residual activity (CDK4 CCND3 (human)): 44.5%
residual activity (EPHA5 (human)): 88.2%
residual activity (CHEK2 (human)): 50.2%
residual activity (CDK9 CCNT1 (human)): 46.8%
residual activity (MAPKAPK2 (human)): 109%
residual activity (LTK (human)): 8.79%
residual activity (YES1 (human)): 68.7%
residual activity (TBK1 (human)): 72.1%
residual activity (CLK3 (human)): 23.1%
residual activity (CHUK (human)): 102%
residual activity (CSNK1G3 (human)): 137%
residual activity (DSTYK (human)): 9.91%
residual activity (PRKX (human)): 60.1%
residual activity (CDC42BPB (human)): 92.1%
residual activity (AXL (human)): 102%
residual activity (PRKCD (human)): 41.9%
residual activity (EPHA7 (human)): 62.6%
residual activity (HIPK4 (human)): 103%
residual activity (INSRR (human)): 82.5%
residual activity (MAP2K2 (human)): 92.5%
residual activity (AURKC (human)): 55.7%
residual activity (STK11 (human)): 31.8%
residual activity [1]: 76.3%
